Experimental data: patent US20030171424A1, “Intravenous formulation of artelinic acid for treatment of severe and complicated malaria” (priority 2002, published 2003)

What was measured:
[1] = Stability of bulk salt and solutions on standing; format: physicochemical
Source text: The precipitates were identified by NMR and x-ray crystallography to be pure artelinic acid.
Feasibility of using preformed AL salts with three basic amino acids, L-lysine, L-arginine or L-histidine for AL intravenous formulation were studied. The basicity of histidine is too weak to form water soluble AL-histidine salt. […] Therefore, L-lysine was deemed the most feasible.
AL/LY is soluble in water, saline, glucose solution or any IV injectable (neutral or basic) water solution. […] Therefore, for practical purpose, the preferred vehicle for intravenous injection is a normal saline or 5% glucose solution containing 0.1-0.5% L-lysine. The final osmolarity is around 290 mosm/kg.

[2] = cited from earlier work; for CNS toxicity versus oil soluble analogs such as artemether and arteether: rats and dogs; for CNS toxicity: chronically dosed rats and dogs
[3] = in vivo; cited from earlier work
[4] = test system: P. knowlesi; settings: rhesus monkeys, 15 mg/kg×3 days; cited from earlier work
[5] = Procedure: The most commonly used water soluble salt for acidic drugs is sodium salt. The sodium salt of artelinic acid was prepared in our laboratory by dissolving artelinic acid in a slightly less than one equivalent mole of sodium hydroxide solution. The slight excess amount of insoluble artelinic acid was removed by extraction of the mixture with diethyl ether. The aqueous layer was evaporated under reduced pressure using a rotary evaporator to remove the small amount of volatile diethyl ether, and then lyophilized to give sodium artelinate as a white powder.
[6] = test system: P. berghei; settings: administered orally; cited from earlier work
[7] = test system: P. coatneyi malaria; experiment: AL/LY Efficacy in Uncomplicated Malaria (rhesus); format: in vivo; settings: control animal, 7 days of IM BID
Procedure: 1. AL/LY Efficacy in Uncomplicated Malaria (done with PK trial)
i. 10 splenectomized rhesus with mild P. coatneyi malaria (mean parasitemia 773K/μl or 11.8%) and one quinine control (773K/μl or 13.5%). All asymptomatic.
ii. 11.8 mg/kg loading dose given IV push over 3 minutes, then 5.9 mg/kg for 2 days

[8] = test system: severe malaria; experiment: Efficacy in Severe Malaria (rhesus); format: in vivo
[9] = aqueous solution made in 5% sodium bicarbonate; cited from earlier work
[10] = Intravenous toxicity and tolerance in rat; format: in vivo; settings: in 5% sodium carbonate vehicle
Source text: Although a ready-to-use intravenous solution in a multiple dose vial is a convenient and preferable formulation, current formulation of dissolving preformed AL/LY salt in 0.3% of L-lysine/saline solution prior to administration has been used satisfactorily to assess the efficacy and toxicity of AL in rat, Aotus and Rhesus monkey models.

Compound: CC1CCC2C(C)C(OCc3ccc(C(=O)O)cc3)OC3OC4(C)CCC1C32OO4.N=C(N)NCCCC(N)C(=O)O (stereo not shown) [AL-arginine salt]
- colour of aqueous solution on standing ([1]; room temperature, within two days to one week): turned to deep red color

Compound: C[C@H]1[C@H](OC(=O)CCC(=O)O)O[C@@H]2O[C@@]3(C)CC[C@H]4[C@H](C)CC[C@@H]1[C@@]24OO3 [AS, artesunic acid]
- CNS toxicity versus oil soluble analogs such as artemether and arteether [2]: substantially less CNS toxicity

Compound: C[C@H]1[C@@H](OCc2ccc(C(=O)[O-])cc2)O[C@@H]2O[C@]3(C)CC[C@H]4[C@H](C)CC[C@@H]1[C@@]24OO3.[Na+] [Na-AL, Sodium artelinate]
- plasma half-life [3]: 90 to 180 min
- cure of infection [4]: complete cures
- solubility in distilled water [5]: does not dissolve completely
- solubility in sodium carbonate solution [5]: very soluble
- water solubility [5]: > 60 mg/mL
- efficacy [6]: highly effective
- time the solution stayed clear ([1]; in sodium carbonate 0.1 to 0.5%, depending on concentration): from one week to one month
- appearance of freshly prepared aqueous solution on standing ([1]; room temperature): turned turbidity
- decomposition product on standing ([1]; room temperature for three months): No decomposition product was detected
- crystal formation on longer standing ([1]; sodium carbonate solutions, room temperature, longer period, free artelinic acid): crystallized out from all solutions

Compound: CCO[C@H]1O[C@@H]2O[C@@]3(C)CC[C@H]4[C@H](C)CC[C@@H]([C@H]1C)[C@@]24OO3 [arteether, Arteether]
- plasma half-life [3]: short plasma half-life
- CNS toxicity [2]: fatal CNS toxicity

Compound: CO[C@H]1O[C@@H]2O[C@@]3(C)CC[C@H]4[C@H](C)CC[C@@H]([C@H]1C)[C@@]24OO3 [artemether, Artemether]
- plasma half-life [3]: short plasma half-life
- CNS toxicity [2]: fatal CNS toxicity

Compound: C=C[C@H]1C[N@@]2CC[C@H]1C[C@H]2[C@H](O)c1ccnc2ccc(OC)cc12 [quinine]
- day on which parasitemia cleared [7]: 8 days
- cure ([8]; IM BID for 7 days): all cured
- parasitemia cleared, mean time ([8]; IM BID for 7 days): 5.6 days
- time to resolution of severe malaria symptoms ([8]; IM BID for 7 days): 3 days
- survived ([8]; IM BID for 7 days, controls (4 of 5)): 80%
- died ([8]; therapy delayed 24 hours): 50%

Compound: C[C@H]1[C@H](OC(=O)CCC(=O)[O-])O[C@@H]2O[C@@]3(C)CC[C@H]4[C@H](C)CC[C@@H]1[C@@]24OO3.[Na+] [sodium artesunate, Sodium artesunate]
- plasma half-life [3]: 20 to 30 min
- time within which dihydroartemisinin precipitates out from unused solution [9]: 2 to 3 h

Compound: artelinic acid [AL]
- LD50 ([10]; female rat): 50 mg/kg
- LD50 ([10]; male rat): 67 mg/kg
- water solubility [5]: not water soluble
- CNS toxicity versus oil soluble analogs such as artemether and arteether [2]: substantially less CNS toxicity
